Data from patent US20050245452A1, “Pharmaceutical use of novispirins” (Novozymes A/S, priority 2004, published 2005).
Ends that are not written are not given here.

Experiments:
[1] = system: P. acnes (erythromycin sensitive); test: MIC on Propionebacterium acnes, erythromycin sensitive strain; type: cell-based
Experimental: (§1) Minimal Inhibitory Concentration (MIC) of Novispirin G10 (SEQ ID NO: 16) was evaluated against P. acnes. Two strains were tested—one of which is clinically resistant to clindamycin and erythromycin.

[2] = system: P. acnes (erythromycin resistant); test: MIC on Propionebacterium acnes, erythromycin resistant strain; type: cell-based; conditions: clinically resistant to clindamycin and erythromycin
Experimental: as §1

[3] = system: Staphylococcus aureus (ATCC 25923); test: Staphylococcus aureus wound infection in pigs (wound chambers, 4 hour time course); type: in vivo, Göttinger minipigs; conditions: 100 micrograms/ml, 1 ml applied
Experimental: The bacterial strain, Staphylococcus aureus, used in the study was ATCC 25923. The amino acid sequence of Novispirin G10 is shown in SEQ ID NO: 16.
Novispirin G10 was diluted in 0.01% acetic acid containing 0.1% BSA with a final concentration of 1 mg (substrate)/ml (solution); 100 micrograms/ml; 10 micrograms/ml and 1 microgram/ml. The carrier control was 0.01% acetic acid containing 0.1% BSA. As a positive control was used Synthetic Protegrin 1 (Charité, Institut f. Biochemie d. Humboldt Universität Berlin) diluted in 0.01% acetic acid containing 0.1% BSA with a final concentration of 100 micrograms/ml.
The chambers are made of one piece of titanium, have a screw top cover (also made of titanium) and were built in teamwork with Cranio Construct Bochum. The chambers have a height of 14 mm, an inner diameter of 25 mm and an outer diameter of 32 mm without baseplate (with baseplate: 50 mm).
After providing permission to conduct experiments with vertebrates in compliance with German animal protection laws, Göttinger minipigs (Fa. Ellegaard, Dalmose, Denmark; female, 6 months old, 25-30 kg weight) were chosen to implant the chambers on. The pigs were kept at least 2 weeks in the stable, fed a standard porcine diet and housed at 20° C. to 30° C. in an atmosphere of approximately 65% humidity with a light cycle of 12 hours on and 12 hours off. The animals used for this study appeared, during the experiments, clinically healthy—rectal temperature and body weight remained normal over the observed period.
Before wounding the skin was surgically prepared, washed with soap and disinfected with Octenisept (S&M, Norderstedt, Germany) for five minutes. Twelve BO-Chambers were implanted on the pigs back and flank between the base of the scapula and the iliac crest. The wounds were spaced a minimum of 5 cm apart and were created in four rows parallel to the columna vertebralis, two rows on each side of the columna vertebrtalis. The exact size and shape of the wounds were ensured by a special custom-made “round-scalpel” (also built in teamwork with Cranio Construct Bochum), which has a diameter of 33 mm. Epidermal, dermal subcutaneous tissues were removed, possible bleedings stanched by bipolar diathermy. The chambers were placed with an additionally secant v-incision at positions 6 respectively 12 o'clock on the musculus thoracicus longus fascia and the muscle fascia of the external ripcage muscles. The incisions were sutured with 2/0 Monocryl followed by the closure of the chambers. Povidone-iodine salve (Betaisodonna-salve, Mundipharma, Austria) was smothered on the wound edges. The chambers were dressed with paraffin gauze (Jelonet, Smith & Nephew, Lohfelden, Germany) and sterile compresses. Dressings were changed every second day under sedation (as described above).
Bacterial Background of each chamber was measured every second day, to detect potential contamination. Only one contaminated chamber was detected. Seven days post operation ten chambers were inoculated with bacteria.
For bacteria progeny Staphylococcus aureus (ATCC 25923) was plated on LB-Agar plate and incubated at 37° C. for 18 hours. One colony was picked and transfered into 3 ml LB-Medium for over night culture at 37° C. at 300 rpm. Over night culture was diluted in 50 ml fresh LB-Medium and incubated for 2.5 hours at 37° C. at 200 rpm.
Bacteria were pelleted, 4000 rpm, 5 min, Mergafuge 1.0 R (Heraeus, Hanau, Germany), and resuspended in PBS. Amount of containg bacteria was detremined by OD600 nm-measurement and calculated as follows: Colony forming Unit/ml=OD600 nm×2.5×10^8 (bacteria)
To inoculate one chamber 5×10^8 were used.
The establishment of the infection was proven by the measurement of bacterial counts per chamber. All inoculated chambers were infected after two days. Chamber No. 2 keeps bacteria free.
At day four after infection the antimicrobial effect of the testing substrate was measured in a time course of 4 hours in duration. […]

Row | Compound | Minimal Inhibitory Concentration (MIC) [1] | Minimal Inhibitory Concentration (MIC) [2] | Mean CFU per ml sample volume (chamber fluid) ([3]; 0 hours) [CFU/ml] | Mean CFU per ml sample volume (chamber fluid) ([3]; 1 hour) [CFU/ml] | Mean CFU per ml sample volume (chamber fluid) ([3]; 2 hours) [CFU/ml] | Mean CFU per ml sample volume (chamber fluid) ([3]; 3 hours) [CFU/ml] | Mean CFU per ml sample volume (chamber fluid) ([3]; 4 hours) [CFU/ml]
1 | CCC[C@@H]1C[C@@H](C(=O)N[C@@H]([C@H]2O[C@H](SC)[C@H](O)[C@@H](O)[C@H]2O)[C@H](C)Cl)N(C)C1 [Clindamycin] | 0.12 | 64 |  |  |  |  | 
2 | CC[C@H]1OC(=O)[C@H](C)[C@@H](O[C@H]2C[C@@](C)(OC)[C@@H](O)[C@H](C)O2)[C@H](C)[C@@H](O[C@@H]2O[C@H](C)C[C@H](N(C)C)[C@H]2O)[C@](C)(O)C[C@@H](C)C(=O)[C@H](C)[C@@H](O)[C@]1(C)O [Erythromycin] | 0.25 | 64 |  |  |  |  | 
3 | Protegrin 1: Synthetic Protegrin 1 (Charité, Humboldt Universität Berlin), used as a positive control at 100 micrograms/ml (RGGRLCYCRRRFCVCVGR; ends and bridges not checked; cysteine pairing not given here; UniProt P32194 131-148, looked up) [reference compound] |  |  | 13200000 | 88667 | 12800 | 3525 | 129000
